From patent US7459441B2, “Remedies for dry eye and diseases associated with dry eye” (Senju Pharmaceutical Co., Ltd., priority 2001, dated 2008)
Where no end group is shown, it is not given here.

Columns and labels:
[1] = test system: eyes of a Japanese white rabbit; test: Lacrimal secretion promotion activity of eye drops (1), Schirmer test; format: in vivo; details: for Amount of lacrimal secretion (Schirmer's value), After administration: 10 minutes after single 50 μL application; for Amount of lacrimal secretion (Schirmer's value), After administration / amount of lacrimal secretion after vs before application (paired t test): Peptide 5 0.1 w/v %, Peptide 15 2.0 w/v %; for Amount of lacrimal secretion (Schirmer's value), After administration / Amount of lacrimal secretion (Schirmer's value), Before administration: n = 6, mean ± standard error; for Amount of lacrimal secretion (Schirmer's value), Before administration: baseline before single 50 μL application to eyes; for amount of lacrimal secretion after vs before application (paired t test): single application to eyes
Procedure: Peptide 5 or 15 was applied to eyes of a rabbit, and an amount of secreted tears was measured, whereby, the pharmacological effect of these peptides on increase in an amount of lacrimal secretion was studied.
Purified water was added to sodium chloride (0.9 g) and sodium dihydrogen phosphate.dihydrate (0.1 g) to make up to a total volume of 100 mL. Further, an appropriate amount of aqueous sodium hydroxide solution was added so as to adjust pH to 7.0 to obtain a vehicle. Peptide 5 was dissolved in the vehicle at a concentration of 0.1 w/v %, and Peptide 15 was dissolved in the vehicle at a concentration of 2.0 w/v %, to prepare test solutions.
Measurement of an amount of tears was performed by a Schirmer test. To eyes of a Japanese white rabbit, 50 μL of a test solution was applied once, and amounts of lacrimal secretion before and 10 minutes after the application to eyes were measured. Five minutes before measurement of an amount of tears, 10 μL of 0.4 w/v % oxybuprocaine hydrochloride (Anelocal™ eye drops, Senju Pharmaceutical Co., Ltd.) was dropped to topically anesthetize. After tears in palpebra interior conjunctival sac were wiped out using a filter paper, and an amount of lacrimal secretion for 1 minute was measured using a Schirmer test paper (Showa Yakuhin Kako Co., Ltd.).

isolated lacrimal gland = test: Promotion of protein secretion from isolated lacrimal gland; design: species or system rabbit; details: 10^-4 M, treating time 0 to 40 minutes, n=5, Dunnett's test (FIG. 1)
Procedure: An isolated lacimal gland of a rabbit was treated with VIP, or Peptide 5 or 15, and the pharmacological effect of these peptides on increase in an amount of secreted protein was studied.
a) Purified water was added to sodium chloride (137.92 g), potassium chloride (7.01 g), calcium chloride-dihydrate (3.53 g) and magnesium chloride.hexahydrate (1.2 g) and the mixture was made up to a total volume of 1000 mL (Solution 1). Separately, purified water was added to potassium dihydrogen phosphate (8.17 g) and the mixture was made up to a total volume of 500 mL (Solution 2). Solution 1 (50 mL) and Solution 2 (10 mL) were added to 900 mL of purified water, 2.07 g of glucose and 2.1 g of […] were dissolved therein, a total amount was adjusted to 1000 mL (pH about 7.4) to obtain an incubation medium. The incubation medium was bubbled with mixed gas containing 95% oxygen and 5% carbon dioxide.
b) VIP, Peptide 5 or Peptide 15 was dissolved in the incubation medium at a concentration of 10^−4 M to obtain a test solution. […]
a) The piece specimen in the steady state was used, the incubation medium was exchanged with 0.5 mL of a fresh incubation medium, followed by incubation at 37° C. for 20 minutes. This incubation medium was collected, a protein staining reagent (DC Protein assay reagent, Bio Rad) was added thereto, and an amount of protein was measured and expressed as an amount of secreted protein per mg of wet weight. […]
b) The incubation medium of the piece specimen after incubation in a) was exchanged with 0.5 mL of a test solution, and the solution was exchanged and collected at 20 minutes intervals totally five times. A protein staining reagent was added to the collected solution, and an amount of protein was measured. For a piece specimen in a control group, the incubation medium was exchanged similarly, and an amount of protein was measured.

[2] = Digestion test with bronchoalveolar lavage fluid (BALF); format: in vitro ADME; details: rat BALF, 90 minutes; for remaining at 1.5 h, 0.1 mg/mL: male, SD, bronchoalveolar lavage fluid (BALF), pH 7.4, 37° C., read-out: remaining rate (undegraded peptide by HPLC)
Procedure: The effect of highly basified Peptide 5 on digestion with bronchoalveolar lavage fluid was studied.
VIP and Peptide 5 were dissolved (1.1 mg/mL) in a 0.2% Tris-HCl buffer (pH 7.4), and bronchoalveolar lavage fluid (BALF) was added thereto. BALF was obtained by pouring 5 mL of a physiological saline into a trachea of a 8 to 9 week old normal SD male rat (about 350 g) under anesthesia, and recovering the saline, and repeating this procedure totally three times. To 0.5 mL of BALF was added 0.05 mL of a sample solution and the mixture was reacted at 37° C. for 90 minutes, and thereafter an amount of undegraded peptide was measured by HPLC.

[3] = Trypsin digestion test in the presence of chondroitin sulfate; format: in vitro ADME; details: 0.5 mU trypsin, pH 7.5, 37° C., 180 minutes, read-out: remaining rate (undegraded peptide by HPLC)
Procedure: The effect of highly basified Peptide 5 on digestion with trypsin was studied in the presence of chondroitin sulfate.
To 100 μL of a solution of VIP and Peptide 5 (1 mg/mL) was added 400 μL of a solution of chondroitin sulfate (pH 7.5, 100 μg/mL) in a 0.2 M Tris-HCl buffer (pH 7.5). To 100 μL of this solution was added 0.5 mU of trypsin and the mixture was incubated at 37° C. for 180 minutes. Then, an amount of an undegraded peptide was measured by HPLC.

[4] = test system: eyes of a Japanese white rabbit; test: Lacrimal secretion promotion activity of eye drops (2), Schirmer test with time; format: in vivo; details: for AUC0-120 min, accumulated value of increment of amount of lacrimal secretion after application / increment of amount of lacrimal secretion vs control group / AUC value compared with control group (significance): 0.1 w/v %; for AUC0-120 min, accumulated value of increment of amount of lacrimal secretion after application: 50 μL once to eyes, n = 8, average ± standard error; for increment of amount of lacrimal secretion vs control group: 10 minutes after the administration, n=8 (FIG. 2); for AUC value compared with control group (significance): 120 minutes after the administration, Dunnett-type multiple comparison test
Procedure: In the same manner as that of Test Example 4, Peptide 5 was applied, and an amount of lacrimal secretion was measured. In this test, an amount of lacrimal secretion was measured with time, and the effect was compared with that of VIP.
Preparation of a solution was performed in the same manner as that of Test Example 4, and VIP and Peptide 5 were dissolved in the vehicle at a concentration of 0.1 w/v %, to prepare a test solution.
[…] Measurement of an amount of lacrimal secretion was performed in the same manner as that of Test Example 4.

Compound | Amount of lacrimal secretion (Schirmer's value), After administration [1] | Amount of lacrimal secretion (Schirmer's value), Before administration [1] | amount of lacrimal secretion after vs before application (paired t test) [1] | rate of protein secretion from isolated lacrimal gland vs control group (isolated lacrimal gland) | remaining at 1.5 h, 0.1 mg/mL [2] | remaining rate as compared with VIP [2] | remaining at 3 h, 0.2 mg/mL [3] | AUC0-120 min, accumulated value of increment of amount of lacrimal secretion after application [4] | increment of amount of lacrimal secretion vs control group [4] | AUC value compared with control group (significance) [4] | duration of lacrimal secretion promoting activity compared with VIP ([4]; application to eyes)
Peptide 15: VIP derivative of formula (I): X1 Lys, X2 Leu, X3 Lys, X4 Lys, X5 chemical bond, X6 -NH2 (HSDAVFTDNYTRLRKQLAVKKYL-NH2) | 7.75 ± 2.16 mm/min | 3.25 ± 1.20 mm/min | tendency of increase | significantly increased | – | – | – | – | – | – | –
HSDAVFTDNYTRLRRQLAVRRYLNSILNGRR-NH2 [Peptide 5] | 8.92 ± 0.45 mm/min | 2.00 ± 0.62 mm/min | significantly increased | significantly increased | 80% | about 1.8 fold | 89% | 359.2 ± 85.0 ΔSchirmer's value × min. | significantly increased | significantly higher value | longer-lasting
CC[C@H](C)[C@H](NC(=O)[C@H](CO)NC(=O)[C@H](CC(N)=O)NC(=O)[C@H](CC(C)C)NC(=O)[C@H](Cc1ccc(O)cc1)NC(=O)[C@H](CCCCN)NC(=O)[C@H](CCCCN)NC(=O)[C@@H](NC(=O)[C@H](C)NC(=O)[C@H](CCSC)NC(=O)[C@H](CCC(N)=O)NC(=O)[C@H](CCCCN)NC(=O)[C@H](CCCNC(=N)N)NC(=O)[C@H](CC(C)C)NC(=O)[C@H](CCCNC(=N)N)NC(=O)[C@@H](NC(=O)[C@H](Cc1ccc(O)cc1)NC(=O)[C@H](CC(N)=O)NC(=O)[C@H](CC(=O)O)NC(=O)[C@@H](NC(=O)[C@H](Cc1ccccc1)NC(=O)[C@@H](NC(=O)[C@H](C)NC(=O)[C@H](CC(=O)O)NC(=O)[C@H](CO)NC(=O)[C@@H](N)Cc1c[nH]cn1)C(C)C)[C@@H](C)O)[C@@H](C)O)C(C)C)C(=O)N[C@@H](CC(C)C)C(=O)N[C@@H](CC(N)=O)C(N)=O [VIP, Vasoactive Intestinal Peptide, reference compound] | – | – | – | significantly increased | 45.5% | – | 75% | 215.0 ± 98.2 ΔSchirmer's value × min. | significantly increased | a significant difference is not recognized | –
